The values below come from patent publication US10329262B2, “Quinazolinone antibiotics” (priority 2013, dated 2019).

One data set has as its system red blood cells. Description: Hemolysis. The class given is cell-based, human. The conditions noted are these: at 50 μg/mL. As to the method: Fresh heparinized human blood was washed three times by centrifugation at 1,200 g for 10 min in 100 mM PBS, pH 7.4. A 10% red-blood cell (RBC) suspension was prepared in PBS. Antibiotic 2 at 0.5, 5, and 50 μg/mL was added to aliquots of the 10% RBC suspension and incubated at 37° C. A positive control of 0.2% Triton was used. Samples were centrifuged at 1,200 g for 10 min and the supernatant measured for absorbance at 541 nm.

Data set [1] can be described thus: Metabolic stability in human S9. The conditions noted are these: human S9, 2 μM. The class given is in vitro ADME. As to the method:
Aliquots were taken at 0, 5, 10, 20, 30, 40, and 60 min, and mixed with two volumes of acetonitrile containing internal standard. The precipitated protein was centrifuged at 20,000 g for 15 min, and the supernatant was analyzed by reversed-phase UPLC.

The test system of data set [2] is S. epidermidis ATCC 35547. Description: MIC, CLSI broth microdilution, S. epidermidis ATCC 35547. The class given is cell-based. As to the method:
(§1) MICs were evaluated following the CLSI microdilution method in BBL™ Mueller-Hinton II broth (Wikler et al., Clinical Laboratory Standards Institute Document M7-A7, 29 (2009)). Briefly, two-fold serial dilutions of compound were prepared in triplicate in 96-well plates and inoculated with 5×10^5 cfu/mL of the bacterial suspension. Plates were incubated at 37° C. for 16-20 hours.
In general terms: Dilution methods test growth across graded concentrations, often in twofold steps.

In a further data set the test system is S. aureus (ATCC 29213). Description: Macromolecular synthesis assays. The class given is cell-based, Staphylococcus aureus. The source says:
Mechanism of Action of the Quinazolinones. The mode of action of 2 was investigated by macromolecular synthesis assays in S. aureus in the logarithmic phase, which monitor incorporation of radiolabeled precursors [methyl-^3H]-thymidine, [5-^3H]-uridine, L-[4,5-^3H]-leucine, or D-[2,3-^3H]-alanine into DNA, RNA, protein, or cell wall (peptidoglycan), respectively. Inhibition of radiolabeled precursor incorporation by 2 at a concentration of half the MIC was compared with those of known inhibitors of each pathway (ciprofloxacin, rifampicin, tetracycline, and fosfomycin, respectively).
The mode of action of 2 was investigated by macromolecular synthesis assays in S. aureus in the logarithmic phase (Miller, A A et al. Antimicrob. Agents Chemother. 52, 2806-12 (2008)), which monitor incorporation of radiolabeled precursors [methyl-^3H]-thymidine, [5-^3H]-uridine, L-[4,5-^3H]-leucine, or D-[2,3-^3H]-alanine into DNA, RNA, protein, or cell wall (peptidoglycan), respectively.
The incorporation of radiolabeled precursors—[methyl-^3H]-thymidine, [5-^3H]-uridine, L-[4,5-^3H]-leucine, or D-[2,3-^3H]-alanine—into DNA, RNA, protein, or peptidoglycan, respectively, in logarithmically growing S. aureus (ATCC 29213) was measured using a previously published method, with aliquots taken every 20 min over a 120-min incubation period (Wilson et al., Antimicrob. Agents Chemother. 39, 1925-33 (1995)).

The test system of a further data set is HepG2 cells. Kind of data set: cells. The note with it: Homo sapiens, HepG2, 16 h, read-out: IC50, XTT cell proliferation assay. The method, then: HepG2 cells (ATCC HB-8065) were maintained in monolayer culture at 37° C. and 5% CO2 in Dulbecco's Modified Eagle's Medium supplemented with 10% fetal bovine serum, non-essential amino acids, 2 mM L-glutamine, and 1% penicillin-streptomycin. […] The cells were washed with Dulbecco's PBS twice, 150 μL of XTT working solution was added to each well, followed by 3-h incubation. Absorbance at 475 nm (test wavelength) and 660 nm (reference wavelength) was read with a microplate reader. Experiments were performed in triplicate and repeated twice. IC50 values were calculated using GraphPad prism 5.
Background: Tetrazolium assays rely on reduction of a dye to a coloured formazan, in cell work by metabolically active cells.

A further data set relates to MRSA ATCC 27660. Kind of data set: Mouse peritonitis model of MRSA infection. The class given is in vivo, mice. The method, then: We evaluated several compounds in in vivo mouse infection models, as well as in pharmacokinetic (PK) studies in mice (Table 1). The in vivo efficacy was determined using the rapid mouse peritonitis model of infection, in which the end point is death or survival in 48 hours. We initially dosed the compounds intravenously (iv) at a single dose level. If the compound has good in vivo efficacy after iv administration, we then evaluated efficacy at five dose levels. We also investigated in vivo efficacy after oral (po) administration.
Groups (n=6/group) of mice were infected with MRSA (0.5 mL of ATCC 27660 at a final concentration of 5×10^7 CFU/mL in 5% porcine mucin) intraperitoneally (ip). Following infection, mice were given iv doses by tail vein injection of compound 2, vancomycin (5 mg/kg, positive control), or vehicle at 30 min and 4.5 h after infection. The number of surviving mice was monitored for 48 h. The negative control (vehicle) typically results in the death of all mice. Quinazolinone 2 was dissolved in saline, sterile-filtered, and administered at doses of 2.5, 5, 7.5, 10, 20, and 30 mg/kg. The ED50 value was calculated using GraphPad prism 5.

Data set [3] can be described thus: Plasma protein binding, rapid equilibrium dialysis, mouse. It is filed as in vitro ADME. The note with it: pH 7.4, mice, 6 h dialysis. The method, then:
Aliquots from both chambers were quenched with 1:2 v/v acetonitrile containing an internal standard. The samples were concentrated to dryness on a miVac concentrator and the residue resuspended in 50:50 acetonitrile/water. Samples were analyzed by reverse-phase ultraperformance liquid chromatography (UPLC) with UV/Vis detection. Plasma protein binding of quinazolinone 2 was 98.0±0.04% in mice and 96.5±0.70% in humans.
A general note: In equilibrium dialysis only unbound substance equilibrates across the membrane.

In a further data set the test system is S. aureus NRS128. Kind of data set: MIC, CLSI broth microdilution, S. aureus NRS128. The conditions noted are these: Table 2.1, S. aureus NRS128. The class given is cell-based, Staphylococcus aureus. The method, then:
as §1

The next data set has as its system S. aureus VRS1. Description: MIC, CLSI broth microdilution, S. aureus VRS1. It is filed as cell-based, Staphylococcus aureus. The method, then:
as §1

In general, MIC refers to the lowest concentration that inhibits growth of the organism. A low value points to inhibition by little substance. As a reminder, the ED50 is the midpoint of the dose-response relation. For orientation: fraction unbound means free concentration divided by total concentration. Read a high fraction unbound as weak binding.

For the compound `N#Cc1ccc(/C=C/c2nc3ccccc3c(=O)n2-c2cccc(C(=O)O)c2)cc1.[Na]` [Compound 2, Sodium (E)-3-(3-carboxyphenyl)-2-(4-cyanostyryl)quinazolin-4(3H)-one], in the data set with red blood cells, the “Hemolysis of red blood cells” value is on record as under 1%. In addition, the “Compound remaining after 1-h incubation” value in [1] came to 100%. In addition, the minimal inhibitory concentration (MIC) in data set [2] (Staphylococcus epidermidis, ATCC35547) was determined as 1 µg/mL; in the data set with S. aureus VRS1 (Staphylococcus aureus, VRS1), 16 µg/mL. For the same compound, the In vitro AB activity (MIC) in data set [2] (Table 2.1, S. epidermidis ATCC 35547) is 1 µg/mL; in the data set with S. aureus NRS128, 4 µg/mL; with S. aureus VRS1 (Table 2.1, S. aureus VRS1) it was 16 µg/mL. Further, in the data set with S. aureus (ATCC 29213), the “Effect on replication, transcription, or translation” value is recorded as “did not significantly affect”. Also, the “Inhibition of cell-wall (peptidoglycan) biosynthesis” value in the data set with S. aureus (ATCC 29213) is reported as 51±12%. The IC50 with HepG2 cells came out at 63 ± 1 µg/mL. Besides, the “In Vivo Efficacy (survived/total mice)” value in the data set on MRSA ATCC 27660 (10 mg/kg iv at 30 min and 4.5 hr after infection, n = 6, 48 h) is 5/6 @ 10 mg/kg. Also, the median effective dose (ED50) with MRSA ATCC 27660 (Staphylococcus aureus, iv administration, dose giving survival of 50% of the animals, read-out: Median effective dose (ED50)) turned out to be 10 mg/kg. The compound further showed a free fraction (fraction unbound) at 6 h, 10 μM in [3] of 0.02.
